Source: PMC9145754, “Novel Soloxolone Amides as Potent Anti-Glioblastoma Candidates: Design, Synthesis, In Silico Analysis and Biological Activities In Vitro and In Vivo” (Pharmaceuticals, 2022)

Experiments:
U118 cells = experiment: Autophagy, MDC staining, U118; type: cell-based, human; conditions: 24 h
Procedure: (§1) Given that pentacyclic triterpenoids can induce tumor cell death not only by the apoptotic pathway but also by triggering autophagy, we next studied whether 12 stimulated autophagy in glioblastoma cells. For this, U87 and U118 cells were incubated with tryptamide 12 at toxic concentrations (2 or 4 µM) for 24 h followed by cell staining with monodansylcadaverine (MDC), a fluorescent dye specifically labeling autophagosomes. […] Considering that autophagy can be associated not only with cell death but also with cytoprotection, its role in the cytotoxicity of 12 in glioblastoma cells was further studied.
To evaluate the ability of 12 to induce autophagy, U87 and U118 cells were seeded at 2.8 × 10^5 cells/well in 6-well plates and incubated under standard conditions overnight followed by their treatment with 12 in amounts of 2 and 4 μM for 24 h. Then, the cells were collected and washed with PBS as described above and resuspended in 500 µL of PBS containing monodancylcadaverine (MDC) at 50 μM. After incubation for 15 min under standard conditions, the cells were washed with PBS and analyzed by flow cytometry. For each sample, 10,000 events were acquired.

U87 cells [1] = experiment: ROS production, DCFDA; type: cell-based, human; conditions: U87, 12 at 4 µM, 24 h
Procedure: To check the ability of 12 to influence ROS production, U87 cells treated with 12 (4 µM) for 24 h were stained with dichlorodihydrofluorescein diacetate (DCFDA) and analyzed by flow cytometry. […] Since ROS play an important role in the regulation of cell death, we further examined whether ROS production mediated the cytotoxicity of 12 with respect to glioblastoma cells.
Intracellular ROS levels in glioblastoma cells were measured using a DCFDA/H2DCFDA-Cellular ROS Assay Kit (Abcam, Cambridge, UK) according to the manufacturer’s instructions. Briefly, U87 cells were collected by trypsinization and stained with DCFDA at 20 μM for 30 min under standard conditions and seeded in 6-well plates at 2.8 × 10^5 cells/well. Next, the cells were treated with 12 at 4 µM for 24 h, followed by their harvesting and flow cytometry analysis. In total, 10,000 events were recorded for each sample.

U87 cells [2] = experiment: Mitochondrial mass, MitoTracker Green; type: cell-based, human; conditions: 24 h
Procedure: Next, to evaluate whether the observed compound 12-driven disturbance of mitochondrial homeostasis in glioblastoma cells involved an alteration in mitochondrial abundance, U87 cells were treated with 12 at 2 and 4 µM for 24 h and stained with MitoTracker Green, a fluorescent probe accumulated in mitochondria ΔψM-independently. […] The obtained results agree well with published data: Yang et al. and Gibellini et al. found a similar increase in mitochondrial mass in RAW264.7 macrophages and colon carcinoma RKO cells treated with CDDO-Im and CDDO, respectively. We suppose that the observed triterpenoid-induced mitogenesis in glioblastoma cells is mediated by compensatory mechanisms in response to compound 12-triggered mitochondrial stress and that it plays a cytoprotective role—high mitochondrial mass is known to be highly correlated with chemotherapy-driven redundant production of reactive oxygen species (ROS) in tumor cells and to underlie their chemoresistance.
U87 cells were seeded at a density of 2.8 × 10^5 cells/well in 6-well plates and incubated overnight, followed by their treatment with 12 at 2 and 4 µM for 24 h. […] Thereafter, the cells were washed twice with PBS and analyzed by flow cytometry. In total, 10,000 events were recorded for each sample.

U87 cells [3] = experiment: Cytotoxicity of 12 with chloroquine (MTT); type: cell-based; conditions: U87, 12 with chloroquine 50 µM, 24 h
Procedure: as §1
In order to evaluate whether autophagy plays an important role in compound 12-induced glioblastoma cell death, U87 cells were seeded in quadruplicate at a density of 1 × 10^4 cells/well in 96-well plates, incubated overnight under standard conditions and co-treated with 12 at 1–5 μM and chloroquine (CQ) at 50 μM for 24 h. Then, cell viability was measured using an MTT test and the curves of cytotoxicity of 12 in the presence or absence of CQ were compared.

KELLY cells = experiment: MTT cytotoxicity assay, KELLY; type: cell-based; conditions: Homo sapiens, 24 h, read-out: IC50, Neuroblastoma, KELLY
Procedure: To evaluate the antitumor activity of the synthesized soloxolone amides in brain tumor cells, the cytotoxicity of compounds 4–12, predicted as BBB-permeable (Figure 3), was further analyzed in human glioblastoma U87 and U118 cells, as well as human neuroblastoma KELLY and murine neuroblastoma Neuro2a cells.
(§2) The cells in the exponential growth phase were seeded in quadruplicate in 96-well plates at a density of 1 × 10^4 cells/well for HeLa, U87, U118, KELLY and Neuro2a cells; 1.5 × 10^4 cells/well for HuTu-80 cells; 2 × 10^4 cells/well for B16 cells; and 7 × 10^3 cells/well for hFF3 fibroblasts. Cells were incubated under standard conditions overnight followed by their treatment with the investigated compounds (1–20 µM) for 24 h. Then, 10 µL of MTT solution was added to the cells to a final concentration of 0.5 mg/mL and plates were placed under standard conditions for 3 h followed by an aspiration of MTT-containing medium and a dissolution of formazan crystals with 100 µL of DMSO. The absorbance of each well was read at test and reference wavelengths of 570 and 620 nm, respectively, on a Multiscan RC plate reader (Thermo LabSystems, Helsinki, Finland).

HuTu-80 cells = experiment: MTT cytotoxicity assay, HuTu-80; type: cell-based; conditions: Homo sapiens, HuTu80, 24 h, read-out: IC50, Duodenum, HuTu-80
Procedure: In the first step of the study, we analyzed the cytotoxicity of novel soloxolone derivatives 1–12 in a panel of tumor cells, including human cervical carcinoma HeLa, human duodenal carcinoma HuTu-80 and murine melanoma B16 cells, as well as human non-transformed hFF3 foreskin fibroblasts. The cells were treated with derivatives for 24 h and cell viability was evaluated by 3-(4,5-dimethylthiazol-2-yl)-2,5-diphenyltetrazolium bromide (MTT) assay. SM was used as the reference compound.
as §2

Question: `CC1(C)C(=O)C(C#N)=C[C@]2(C)C3=CC(=O)[C@@H]4[C@@H]5C[C@@](C)(C(=O)NCCc6c[nH]c7ccccc67)CC[C@]5(C)CC[C@@]4(C)[C@]3(C)CC[C@@H]12` [compound 12] was tested. Which “MDC-positive cells, U118” value (U118 cells; 12 at 2 µM) did it give?
Answer: The value was 8.55%.

Question: And the “MDC-positive cells, U118” value (U118 cells; 12 at 4 µM)?
Answer: Its value is 8.02%.

Question: And the “increase of ROS generation compared to the control” value (U87 cells [1])?
Answer: Its value is 1.9 fold.

Question: And the “induction of mitochondrial biogenesis” value (U87 cells [2]; U87, 12 at 2 µM)?
Answer: Its value is “statistically insignificant”.

Question: And the “increase of mitochondrial mass compared to the control” value (U87 cells [2]; U87, 12 at 4 µM)?
Answer: Its value is 1.6 fold.

Question: What about the “effect of chloroquine on cytotoxic activity of 12” value (U87 cells [3]) of the same compound?
Answer: Its value is “did not affect the cytotoxic activity”.

Question: What about the IC50 (KELLY cells) of the same compound?
Answer: Its IC50 is 1800 ± 100 nM.

Question: And the IC50 (HuTu-80 cells)?
Answer: The IC50 was 1500 ± 100 nM.
